A word on the EC50: it is the concentration giving half of the maximal effect. As a reminder, the Kd is the concentration at which binding is half-saturated. A lower Kd goes with a tighter complex.

These results are taken from patent US12617780B2, “Benzothiophene, thienopyridine and thienopyrimidine derivatives for the modulation of sting” (CTXT PTY LTD, priority 2019, dated 2026).

For experiment [1], the target named is T1, human HAQ isoform of STING (Homo sapiens, UniProt Q86WV6, G230A/H232R/R293Q/R71H).
T1 construct: host or cells: THP-1 STING Lucia ISG cells
Briefly: THP-1 STING Lucia ISG reporter cell line assay. It is filed as cell-based. The note with it: 24 h incubation, QUANTI-Luc luminescence; normalised to 40 μM ML RR-S2 CDA; read-out: EC50 THP-1 STING Lucia ISG cells. On the procedure: (§1) THP-1 STING Lucia ISG cells (InvivoGen #thpl-isg) were cultured in RPMI-1640 containing 2 mM L-glutamine, 25 mM HEPES, 100 μg/mL Normocin (InvivoGen) and 10% heat-inactivated FBS. Cells were seeded at a density of 7×10^5 cells/mL, maintained at 37° C./5% CO2, and passaged every 3-4 days. Selection pressure was maintained by the addition of 100 μg/mL Zeocin every second passage.
(§2) Assay conditions: cells were harvested and resuspended at a concentration of 5×10^5 cells/mL in fresh growth media. Of this cell preparation 20 μL per well was dispensed into 384 well cell culture plates (Greiner, #781098X) and incubated at 37° C./5% CO2 for 2 hours.
(§3) Concentration Response Curves (commonly 11 doses) were prepared by 2.5 fold serial dilution starting from 10 mM compound stock solution in DMSO. Compound dilutions were transferred into the cell culture plates using a pintool (0.1 μL transfer), control wells were matched for DMSO. Positive control wells received ML RR-S2 CDA (Med Chem Express HY12885B) in 5 μL of media to a final concentration of 40 μM. All other wells received additional 5 μL of media only to equalise volume. The plates were incubated for 24 h at 37° C./5% CO2.
(§4) For the detection step, QUANTI-Luc (InvivoGen #rep-qlc1) was prepared according to manufacturer's instruction and 10 μL were added per well to the culture plates. Plates were shaken for ten seconds on an orbital shaker and left in the dark at room temperature for two minutes, before luminescence was read on a Perkin Elmer Envision plate reader.
(§5) Data analysis: Luminescence raw data was normalised % activity relative to the signal of the positive control wells and negative control wells which were not treated with compound. The following formula was used to calculate normalised % activity from raw signals: % activity=(sample−negative)/(positive−negative)
(§6) The THP-1 STING Lucia ISG cell EC50 provides an assessment of activity at the human HAQ isoform of STING. For assessing compound activity against the WT human STING isoform, an equivalent method was conducted where the cells used were THP-1-Dual KI-hSTING-R232 (InvivoGen #thpd-r232).

Experiment [2] addresses T2, WT human STING isoform (Homo sapiens, UniProt Q86WV6, H232R).
T2 construct: host or cells: THP-1-Dual KI-hSTING-R232
Briefly: THP-1-Dual KI-hSTING-R232 reporter cell line assay. The settings on record: 24 h incubation, QUANTI-Luc luminescence; normalised to 40 μM ML RR-S2 CDA; read-out: EC50 THP-1 Dual KI-hSTING-R232 cells. It counts as cell-based. On the procedure:
as §1, §2, §3, §4, §5, §6

For experiment [3], the target named is T3, huSTING (HAQ) (Homo sapiens, UniProt Q86WV6, G230A/H232R/R293Q).
T3 construct: made in house; host or cells: E. coli BL21 DE3
Briefly: Surface Plasmon Resonance (SPR) STING (HAQ). It counts as binding. The note with it: biotinylated STING on streptavidin chip, 8° C.; 50% occupancy as surrogate KD. The source says:
(§7) To determine binding affinities (50% occupancy as a surrogate Ko for the two binding events occurring) from dose-response experiments, binding responses at equilibrium were fit to a Hill equation, where the Hill coefficient was floated (52). For single-cycle kinetic experiments, sensorgrams were fit to a two-step kinetic model in which two analyte molecules bind sequentially (Biacore T200 or S200 Evaluation Software).

Experiment [4] addresses T4, huSTING (WT) (Homo sapiens, UniProt Q86WV6, H232R).
T4 construct: made in house; host or cells: E. coli BL21 DE3
Briefly: Surface Plasmon Resonance (SPR) STING (WT). It is filed as binding. The note with it: biotinylated STING on streptavidin chip, 8° C.; 50% occupancy as surrogate KD.
Description: as §7

T4 sequence (Q86WV6 with tags, fused parts or gaps H232R): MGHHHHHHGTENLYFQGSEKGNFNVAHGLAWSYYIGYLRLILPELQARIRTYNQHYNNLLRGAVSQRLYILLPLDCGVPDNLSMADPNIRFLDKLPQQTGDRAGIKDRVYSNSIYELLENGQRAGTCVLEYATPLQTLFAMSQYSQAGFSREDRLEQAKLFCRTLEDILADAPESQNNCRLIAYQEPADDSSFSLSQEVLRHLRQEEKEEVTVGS
T2 sequence (Q86WV6 whole entry H232R, canonical isoform): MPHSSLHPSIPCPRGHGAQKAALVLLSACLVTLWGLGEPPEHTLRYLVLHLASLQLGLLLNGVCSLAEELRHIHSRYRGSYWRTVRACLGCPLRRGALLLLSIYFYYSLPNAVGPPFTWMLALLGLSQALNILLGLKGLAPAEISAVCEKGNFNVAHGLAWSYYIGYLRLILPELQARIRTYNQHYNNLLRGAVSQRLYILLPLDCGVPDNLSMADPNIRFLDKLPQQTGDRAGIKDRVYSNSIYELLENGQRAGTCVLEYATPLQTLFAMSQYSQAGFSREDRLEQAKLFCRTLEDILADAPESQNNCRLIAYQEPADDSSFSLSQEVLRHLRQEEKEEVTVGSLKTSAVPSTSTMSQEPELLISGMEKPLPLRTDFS
T1 sequence (Q86WV6 whole entry R71H/G230A/H232R/R293Q, canonical isoform): as the sequence (Q86WV6 whole entry H232R, canonical isoform) above, with R71H, G230A, R293Q counted along it
T3 sequence (Q86WV6 with tags, fused parts or gaps G230A/H232R/R293Q): as the sequence (Q86WV6 with tags, fused parts or gaps H232R) above, with G100A, R163Q counted along it

On to `CCOC(=O)c1sc2cccc(Cl)c2c1-c1nc2cc(C(N)=O)ccc2n1C` (single isomer, unassigned) [Example 5.1, Ethyl 3-(5-Carbamoyl-1-methyl-1H-benzo[d]imidazol-2-yl)-4-chlorobenzo[b]thiophene-2-carboxylate], for which the results for the EC50 in experiment [1] and in experiment [2] were 8270 nM and 20100 nM, respectively.
For `CCOC(=O)c1sc2cccc(Cl)c2c1-c1nc2ccc(C(N)=O)cc2n1C` (single isomer, unassigned) [Example 5.2, Ethyl 3-(6-carbamoyl-1-methyl-1H-benzo[d]imidazol-2-yl)-4-chlorobenzo[b]thiophene-2-carboxylate], in that order: 2510 nM and 29400 nM.
On the same counts, the results for `CCOC(=O)c1sc2cccc(Cl)c2c1-c1nc2cc(C(N)=O)ccc2[nH]1` [Example 1, Ethyl 3-(5-carbamoyl-1H-benzo[d]imidazol-2-yl)-4-chlorobenzo[b]thiophene-2-carboxylate] are 574 nM and 7070 nM.
Regarding `NC(=O)c1ccc2[nH]c(-c3c(C(=O)O)sc4cccc(Cl)c34)nc2c1` [Example 2, 3-(5-Carbamoyl-1H-benzo[d]imidazol-2-yl)-4-chlorobenzo[b]thiophene-2-carboxylic acid], in experiment [3], the Kd was determined as 42000 nM. Also, the values for the half-maximal effective concentration (EC50) in experiment [1] and in experiment [2] were 23900 nM and > 40000 nM, respectively.
For `CCOC(=O)c1sc2cccc(Cl)c2c1-c1nc2cc(C(N)=O)cc(F)c2[nH]1` [Example 3, Ethyl 3-(5-carbamoyl-7-fluoro-1H-benzo[d]imidazol-2-yl)-4-chlorobenzo[b]thiophene-2-carboxylate], the figures for the 50% effective concentration (EC50) in experiment [1] and in experiment [2] were 455 nM and 2580 nM, respectively.
For `CCOC(=O)c1sc2cccc(Cl)c2c1-c1nc2ccc(C(N)=O)c(OC)c2[nH]1` [Example 4, Ethyl 3-(6-carbamoyl-7-methoxy-1H-benzo[d]imidazol-2-yl)-4-chlorobenzo[b]thiophene-2-carboxylate], in that order: 4.1 nM and 57 nM.
On the same counts, the results for `CCOC(=O)c1sc2c(F)ccc(Br)c2c1-c1nc2cc(C(N)=O)ccc2[nH]1` [Example 7, Ethyl 4-bromo-3-(5-carbamoyl-1H-benzo[d]imidazol-2-yl)-7-fluorobenzo[b]thiophene-2-carboxylate] are 441 nM and 2120 nM.
Regarding `NC(=O)c1ccc2[nH]c(-c3c(C(=O)O)sc4c(F)ccc(Br)c34)nc2c1` [Example 8, 4-Bromo-3-(5-carbamoyl-1H-benzo[d]imidazol-2-yl)-7-fluorobenzo[b]thiophene-2-carboxylic acid], the results for the dissociation constant Kd in experiment [4] and in experiment [3] were 91000 nM and 6700 nM, respectively. For the same compound, the concentration giving a half-maximal response (EC50) is 18300 nM in experiment [1] and 16400 nM in experiment [2].
On the same counts, the results for `COc1c(C(N)=O)ccc2nc(-c3c(C(=O)O)sc4cccc(Cl)c34)[nH]c12` [Example 9, 3-(6-Carbamoyl-7-methoxy-1H-benzo[d]imidazol-2-yl)-4-chlorobenzo[b]thiophene-2-carboxylic acid] are 51000 nM, 3100 nM, 2460 nM and 4670 nM.
`CCOC(=O)c1sc2c(F)ccc(Br)c2c1-c1nc2ccc(C(N)=O)c(OC)c2[nH]1` [Example 10, Ethyl 4-bromo-3-(6-carbamoyl-7-methoxy-1H-benzo[d]imidazol-2-yl)-7-fluorobenzo[b]thiophene-2-carboxylate]: the results for the 50% effective concentration (EC50) in experiment [1] and in experiment [2] were 43 nM and 121 nM, respectively.
As for `COc1c(C(N)=O)ccc2nc(-c3c(C(=O)O)sc4c(F)ccc(Br)c34)[nH]c12` [Example 11, 4-Bromo-3-(6-carbamoyl-7-methoxy-1H-benzo[d]imidazol-2-yl)-7-fluorobenzo[b]thiophene-2-carboxylic acid], the Kd in experiment [4] was found to be 1450 nM; in experiment [3], 140 nM. For the same compound, the concentration giving a half-maximal response (EC50) in experiment [1] amounted to 651 nM; in experiment [2], 1040 nM.
`CCOC(=O)c1sc2cccc(Cl)c2c1-c1nc2c(Cl)c(C(N)=O)ccc2[nH]1` [Example 12, Ethyl 3-(5-carbamoyl-4-chloro-1H-benzo[d]imidazol-2-yl)-4-chlorobenzo[b]thiophene-2-carboxylate]: the 50% effective concentration (EC50) stood at 12 nM in experiment [1] and 24 nM in experiment [2].
Consider `NC(=O)c1ccc2[nH]c(-c3c(C(=O)O)sc4cccc(Cl)c34)nc2c1Cl` [Example 13, 3-(5-Carbamoyl-4-chloro-1H-benzo[d]imidazol-2-yl)-4-chlorobenzo[b]thiophene-2-carboxylic acid], for which the dissociation constant Kd in experiment [3] stood at 33300 nM. Also, the EC50 turned out to be 6100 nM in experiment [1] and 4380 nM in experiment [2].
As to `CCOC(=O)c1sc2c(F)ccc(Br)c2c1-c1nc2ccc(C(N)=O)c(OCC)c2[nH]1` [Example 14, Ethyl 4-bromo-3-(6-carbamoyl-7-ethoxy-1H-benzo[d]imidazol-2-yl)-7-fluorobenzo[b]thiophene-2-carboxylate], the EC50 in experiment [1] was 576 nM; in experiment [2], 2720 nM.
In experiment [3], `CCOc1c(C(N)=O)ccc2nc(-c3c(C(=O)O)sc4c(F)ccc(Br)c34)[nH]c12` [Example 15, 4-Bromo-3-(6-carbamoyl-7-ethoxy-1H-benzo[d]imidazol-2-yl)-7-fluorobenzo[b]thiophene-2-carboxylic acid] displayed an equilibrium dissociation constant (Kd) of 55700 nM. Besides, the EC50 in experiment [1] and in experiment [2] was > 40000 nM each time.
Take `CCOC(=O)c1sc2c(Br)cnc(OC)c2c1-c1nc2c(OC)c(C(N)=O)ccc2[nH]1` [Example 16, Ethyl 7-bromo-3-(5-carbamoyl-4-methoxy-1H-benzo[d]imidazol-2-yl)-4-methoxythieno[3,2-c]pyridine-2-carboxylate]: the concentration giving a half-maximal response (EC50) is 1550 nM in experiment [1] and 2730 nM in experiment [2].
On the same counts, the results for `CCOC(=O)c1sc2c(F)ccc(Cl)c2c1-c1nc2c(OC)c(C(N)=O)cc(Cl)c2[nH]1` [Example 18, Ethyl 3-(5-carbamoyl-7-chloro-4-methoxy-1H-benzo[d]imidazol-2-yl)-4-chloro-7-fluorobenzo[b]thiophene-2-carboxylate] are 1830 nM and 2270 nM.
Consider `CCOC(=O)c1sc2cccc(OC)c2c1-c1nc2c(OC)c(C(N)=O)ccc2[nH]1` [Example 19, Ethyl 3-(5-carbamoyl-4-methoxy-1H-benzo[d]imidazol-2-yl)-4-methoxybenzo[b]thiophene-2-carboxylate], for which the EC50 worked out at 28 nM in experiment [1] and 82 nM in experiment [2].
`CCOC(=O)c1sc2c(F)ccc(Cl)c2c1-c1nc2c(OC)c(C(N)=O)ccc2[nH]1` [Example 20, Ethyl 3-(5-carbamoyl-4-methoxy-1H-benzo[d]imidazol-2-yl)-4-chloro-7-fluorobenzo[b]thiophene-2-carboxylate]: the concentration giving a half-maximal response (EC50) in experiment [1] was 122 nM; in experiment [2], 131 nM.
On the same counts, the results for `COc1c(C(N)=O)cc(F)c2[nH]c(-c3c(C(=O)O)sc4c(F)ccc(Cl)c34)nc12` [Example 21, 3-(5-Carbamoyl-7-fluoro-4-methoxy-1H-benzo[d]imidazol-2-yl)-4-chloro-7-fluorobenzo[b]thiophene-2-carboxylic acid] are 3590 nM and 4930 nM.
On the same counts, the results for `COc1c(C(N)=O)ccc2[nH]c(-c3c(C(=O)O)sc4cccc(OC)c34)nc12` [Example 22, 3-(5-Carbamoyl-4-methoxy-1H-benzo[d]imidazol-2-yl)-4-methoxybenzo[b]thiophene-2-carboxylic acid] are 9360 nM and 9040 nM.
On the same counts, the results for `CCOC(=O)c1sc2c(F)ccc(Cl)c2c1-c1nc2c(OC)c(C(N)=O)cc(F)c2[nH]1` [Example 23, Ethyl 3-(5-carbamoyl-7-fluoro-4-methoxy-1H-benzo[d]imidazol-2-yl)-4-chloro-7-fluorobenzo[b]thiophene-2-carboxylate] are 115 nM and 119 nM.
